Results reported in patent US20040266823A1 (priority 2001, published 2004).
Where a name gives a salt, the structure may show the parent alone.

Target: recombinant human CCR5 receptor (Homo sapiens, UniProt P51681)
Test: MIP-1α radioligand binding assay (scintillation proximity)
Conditions: displacement of 0.1 nM iodinated MIP-1α; membranes from Chinese hamster ovary cells; average if tested more than once
Protocol: The ability of compounds to inhibit the binding of MIP-1α was assessed by an in vitro radioligand binding assay. Membranes were prepared from Chinese hamster ovary cells which expressed the recombinant human CCR5 receptor. These membranes were incubated with 0.1 nM iodinated MIP-1α, scintillation proximity beads and various concentrations of the compounds of the invention in 96 well plates. The amount of iodinated MIP-1α bound to the receptor was determined by scintillation counting. Competition curves were obtained for compounds and the concentration of compound which displaced 50% of bound iodinated MIP-1α was calculated (IC50).
In Table II the results are presented as Pic50 values. A Pic50 value is the negative log (to base 10) of the IC50 result, so an IC50 of 1 μM (that is 1×10^−6M) gives a Pic50 of 6. If a compounds was tested more than once then the data below is an average of the probative tests results.

Chain of recombinant human CCR5 receptor (P51681 whole entry): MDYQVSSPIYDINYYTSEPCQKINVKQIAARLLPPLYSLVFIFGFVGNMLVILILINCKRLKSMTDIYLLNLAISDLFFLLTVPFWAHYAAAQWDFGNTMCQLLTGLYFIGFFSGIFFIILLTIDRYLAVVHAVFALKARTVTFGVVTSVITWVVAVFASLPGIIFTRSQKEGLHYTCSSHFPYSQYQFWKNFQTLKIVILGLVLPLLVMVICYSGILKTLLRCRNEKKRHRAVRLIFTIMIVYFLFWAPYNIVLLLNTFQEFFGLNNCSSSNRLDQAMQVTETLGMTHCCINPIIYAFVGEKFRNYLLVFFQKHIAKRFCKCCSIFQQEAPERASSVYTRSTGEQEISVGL

| Pic50 | IC50 [nM] | Compound |
| --- | --- | --- |
| 7.7 |  | CCN(C(=O)Cc1ccc(S(C)(=O)=O)cc1)C1CCN(CC[C@H](NC(=O)C2CCOC(C)(C)C2)c2ccccc2)CC1 (stereo partly drawn) [Compound No. 81, (s)-N-[1-(3-phenyl-3-[2,2-dimethyltetrahydropyran-4-yl-carboxyamino]propyl)-4-piperidinyl]-N-ethyl-4-methanesulfonylphenylacetamide] |
| 7.97 |  | CCN(C(=O)Cc1ccc(S(C)(=O)=O)cc1)C1CCN(CC[C@H](NC(=O)N2CCSCC2)c2ccccc2)CC1 [Compound No. 83, (S)-N-[1-(3-phenyl-3-[thiomorpholin-4-ylcarboxyamino]propyl)-4-piperidinyl]-N-ethyl-4-methanesulfonylphenylacetamide] |
|  | 35.5 | CCN(C(=O)Cc1ccc(S(C)(=O)=O)cc1)C1CCN(CC[C@H](NC(=O)C(F)F)c2ccccc2)CC1 [Compound No. 84, (S)-N-[1-(3-phenyl-3-difluoroacetylaminopropyl)-4-piperidinyl]-N-ethyl-4-methanesulfonylphenylacetamide hydrochloride] |
|  | 2 | CCN(C(=O)Cc1ccc(S(C)(=O)=O)cc1)C1CCN(CC[C@H](NC(=O)CC(F)(F)F)c2ccccc2)CC1 [Compound No. 86, (S)-N-[1-(3-phenyl-3-[3,3,3-trifluoropropionylamino]propyl)-4-piperidinyl]-N-ethyl-4-methanesulfonylphenylacetamide hydrochloride] |
| 7.52 |  | CCN(C(=O)Cc1ccc(S(C)(=O)=O)cc1)C1CCN(CC[C@H](NC(=O)N2CCS(=O)(=O)CC2)c2ccccc2)CC1 [Compound No. 91, (S)-N-[1-(3-phenyl-3-[1,1-dioxothiomorpholin-4-ylcarboxyamino]propyl)-4-piperidinyl]-N-ethyl-4-methanesulfonylphenylacetamide] |
|  | 16.2 | CCN(C(=O)Cc1ccc(S(C)(=O)=O)cc1)C1CCN(CC[C@H](NC(=O)c2cccc(C#N)c2)c2ccccc2)CC1 [Compound No. 93, (S)-N-[1-(3-phenyl-3-[3-cyanobenzoylamino]propyl)-4-piperidinyl]-N-ethyl-4-methanesulfonylphenylacetamide] |
|  | 0.191 | CCN(C(=O)Cc1ccc(S(C)(=O)=O)cc1)C1CCN(C(C)C[C@H](NC(=O)C2CCOCC2)c2ccccc2)CC1 (stereo partly drawn) [Compound No. 95, (3′S)-N-[1-(1-methyl-3-phenyl-3-[tetrahydropyran-4-yl-carboxyamino]propyl)-4-piperidinyl]-N-ethyl-4-methanesulfonylphenylacetamide] |
|  | 2.34 | CCN(C(=O)Cc1ccc(S(C)(=O)=O)cc1)C1CCN(CC[C@H](NC(=O)CCC(F)(F)F)c2ccccc2)CC1 [Compound No. 96, (S)-N-[1-(3-phenyl-3-[4,4,4-trifluorobutyrylamino]propyl)-4-piperidinyl]-N-ethyl-4-methanesulfonylphenylacetamide hydrochloride] |
|  | 0.437 | CCN(C(=O)Cc1ccc(S(C)(=O)=O)cc1)C1CCN(CC[C@H](NC(=O)c2ccccc2)c2cccc(F)c2)CC1 [Compound No. 103, (S)-N-{1-[3-benzoylamino-3-(3-fluorophenyl)propyl]piperidin-4-yl}-N-ethyl-2-(4-methanesulfonyl-phenyl)acetamide] |
|  | 0.447 | CCN(C(=O)Cc1ccc(S(C)(=O)=O)cc1)C1CCN(CC[C@H](NC(=O)c2cccc(F)c2)c2cccc(F)c2)CC1 [Compound No. 104, (S)-N-{1-[3-(3-fluorobenzoylamino)-3-(3-fluorophenyl)propyl]piperidin-4-yl}-N-ethyl-2-(4-methanesulfonyl-phenyl)acetamide] |
|  | 0.562 | CCN(C(=O)Cc1ccc(S(C)(=O)=O)cc1)C1CCN(CC[C@H](NC(=O)CC(C)(C)C)c2cccc(F)c2)CC1 [Compound No. 106, (S)-N-{1-[3-(3,3-dimethylbutyrylamino)-3-(3-fluorophenyl)propyl]piperidin-4-yl}-N-ethyl-2-(4-methanesulfonyl-phenyl)acetamide] |
| 8.02 |  | CCN(C(=O)Cc1ccc(S(C)(=O)=O)cc1)C1CCN(CC[C@H](NC(=O)CC(F)(F)F)c2cccc(F)c2)CC1 [Compound No. 108, (S)-N-{1-[3-(3,3,3-trifluoropropionylamino)-3-(3-fluorophenyl)propyl]piperidinyl}-N-ethyl-2-(4-methanesulfonyl-phenyl)acetamide] |
| 9.27 |  | CCN(C(=O)Cc1ccc(S(C)(=O)=O)cc1)C1CCN(CC[C@H](NC(=O)C2CCSCC2)c2ccccc2)CC1 [Compound No. 109, (S)-N-[1-(3-phenyl-3-[tetrahydrothiopyran-4-yl-carboxyamino]propyl)-4-piperidinyl]-N-ethyl-4-methanesulfonylphenylacetamide] |
|  | 14.1 | CCN(C(=O)Cc1ccc(S(C)(=O)=O)cc1)C1CCN(CC[C@H](NC(=O)c2ccoc2)c2ccccc2)CC1 [compound 52] |
|  | 15.5 | CCN(C(=O)Cc1ccc(S(C)(=O)=O)cc1)C1CCN(CC[C@H](NC(=O)c2ccc[nH]2)c2ccccc2)CC1 [compound 53] |
|  | 91.2 | CCN(C(=O)Cc1ccc(S(C)(=O)=O)cc1)C1CCN(CC[C@H](NC(=O)c2csnn2)c2ccccc2)CC1 [compound 63] |
|  | 331 | CCN(C(=O)Cc1ccc(S(C)(=O)=O)cc1)C1CCN(CC[C@H](NC(=O)c2ccno2)c2ccccc2)CC1 [compound 64] |
|  | 66.1 | CCN(C(=O)Cc1ccc(S(C)(=O)=O)cc1)C1CCN(CC[C@H](NC(=O)c2ccc(NC(C)=O)nc2)c2ccccc2)CC1 [compound 68] |

| Pic50 | IC50 [nM] | Compound |
| --- | --- | --- |
|  | 28.2 | CCN(C(=O)Cc1ccc(S(C)(=O)=O)cc1)C1CCN(CC[C@H](NC(=O)c2ccc(S(C)(=O)=O)s2)c2ccccc2)CC1 [compound 79] |
|  | 20 | CCN(C(=O)Cc1ccc(S(C)(=O)=O)cc1)C1CCN(CC[C@H](NC(=O)c2cc(F)cc(F)c2)c2ccccc2)CC1 [compound 82] |
|  | 16.2 | CCN(C(=O)Cc1ccc(S(C)(=O)=O)cc1)C1CCN(CC[C@H](NC(=O)C(C)CC(F)(F)F)c2ccccc2)CC1 (stereo partly drawn) [compound 87] |
|  | 33.1 | CCN(C(=O)Cc1ccc(S(C)(=O)=O)cc1)C1CCN(CC[C@H](NC(=O)c2ccc(C(F)(F)F)o2)c2ccccc2)CC1 [compound 88] |
|  | 57.5 | CCN(C(=O)Cc1ccc(S(C)(=O)=O)cc1)C1CCN(CC[C@H](NC(=O)c2ccc(=O)[nH]c2)c2ccccc2)CC1 [compound 89] |
|  | 245 | CCN(C(=O)Cc1ccc(S(C)(=O)=O)cc1)C1CCN(CC[C@H](NC(=O)c2cnc[nH]2)c2ccccc2)CC1 [compound 90] |
|  | 631 | CCN(C(=O)Cc1ccc(S(C)(=O)=O)cc1)C1CCN(CC[C@H](NC(=O)c2[nH]nnc2C(C)C)c2ccccc2)CC1 [compound 92] |
|  | 27.5 | CCN(C(=O)Cc1ccc(S(C)(=O)=O)cc1)C1CCN(CC[C@H](NC(=O)c2ccc(C#N)cc2)c2ccccc2)CC1 [compound 94] |
|  | 26.9 | CCN(C(=O)Cc1ccc(S(C)(=O)=O)cc1)C1CCN(CC[C@H](NC(=O)c2ccc(NC(C)=O)cc2)c2ccccc2)CC1 [compound 97] |
|  | 14.5 | CCN(C(=O)Cc1ccc(S(C)(=O)=O)cc1)C1CCN(CC[C@H](NC(=O)c2cccc(S(C)(=O)=O)c2)c2ccccc2)CC1 [compound 98] |
|  | 40.7 | CCN(C(=O)Cc1ccc(S(C)(=O)=O)cc1)C1CCN(CC[C@H](NC(=O)c2ccc(S(C)(=O)=O)cc2)c2ccccc2)CC1 [compound 99] |
|  | 23.4 | CCN(C(=O)Cc1ccc(S(C)(=O)=O)cc1)C1CCN(CC[C@H](NC(=O)c2ccc(S(=O)(=O)NC)cc2)c2ccccc2)CC1 [compound 100] |
|  | 4.68 | CCN(C(=O)Cc1ccc(S(C)(=O)=O)cc1)C1CCN(CC[C@H](NC(=O)c2ccc(NS(C)(=O)=O)cc2)c2ccccc2)CC1 [compound 101] |
|  | 9.55 | CCN(C(=O)Cc1ccc(S(C)(=O)=O)cc1)C1CCN(CC[C@H](NC(=O)c2ccc(C(F)(F)F)cc2)c2ccccc2)CC1 [compound 102] |
|  | 2.88 | CCN(C(=O)Cc1ccc(S(C)(=O)=O)cc1)C1CCN(CC[C@H](NC(=O)C2CCOCC2)c2cccc(F)c2)CC1 [compound 105] |
|  | 0.933 | CCN(C(=O)Cc1ccc(S(C)(=O)=O)cc1)C1CCN(CC[C@H](NC(=O)N2CCCCC2)c2cccc(F)c2)CC1 [compound 107] |
|  | 45.7 | CCN(C(=O)Cc1ccc(S(C)(=O)=O)cc1)C1CCN(CC[C@H](NC(=O)CC(C)(C)O)c2ccccc2)CC1 [compound 110] |

| Compound | Pic50 | IC50 [nM] |
| --- | --- | --- |
| CCN(C(=O)Cc1ccc(S(C)(=O)=O)cc1)C1CCN(CC[C@H](NC(=O)c2cnccc2C(F)(F)F)c2ccccc2)CC1.Cl | 7.32 |  |
